The record followed here is patent US9067935B2 (Janssen Pharmaceutica, NV, priority 2010, dated 2015).

SMILES strings stand for the structures. Read-outs that look alike come from different tables or passages of the source.

This experiment deals with canine TRPM8 (Canis lupus familiaris, UniProt Q1A7N1). The experiment in a line: In Vitro Canine TRPM8 Functional Assay (intracellular Ca2+ fluorescence, icilin challenge). It counts as cell-based. The conditions noted are these: for IC50: icilin at ~80% maximal response. The procedure: The functional activity of compounds of the formula (I) was determined by measuring changes in intracellular calcium concentration using a Ca^2+-sensitive fluorescent dye. The changes in fluorescent signal were monitored by a fluorescence plate reader, either a FLIPR™ (Molecular Devices) or FDSS (Hamamatsu).
At 24 hrs prior to assay, HEK293 cells stably expressing canine TRPM8 were seeded in culture medium in black wall, clear-base poly-D-lysine coated 384-well plates (BD Biosciences, NJ, USA) and grown overnight in 5% CO2 at 37° C. On assay day, growth media was removed and cells were loaded with Calcium 3 Dye (Molecular Devices) for 35 min at 37° C., under 5% CO2 and then for 25 min at room temperature and atmosphere. Subsequently, cells were tested for agonist-induced increases in intracellular Ca^2+ levels using FLIPR™ or FDSS. Cells were challenged with a compound of the Formula (I) (at varying concentrations) and intracellular Ca^2+ was measured for 5 min prior to the addition of icilin to all wells to achieve a final concentration that produces approximately an 80% maximal response. EC50 or IC50 values for compounds of the present invention were determined from eight-point dose-response studies. Curves were generated using the average of quadruplicate wells for each data point.

[1] abbreviates: HEK293, @ 0.2 μM, HEK293 cells stably expressing canine TRPM8, read-out: % Inh (%) @ 0.2 μM.
Where [2] appears, read: HEK293 cells stably expressing canine TRPM8.
The mark [3] stands for this setting: HEK293, read-out: % Inh (%) @ 0.2 μM.

Sequence of canine TRPM8 (Q1A7N1 1-1104): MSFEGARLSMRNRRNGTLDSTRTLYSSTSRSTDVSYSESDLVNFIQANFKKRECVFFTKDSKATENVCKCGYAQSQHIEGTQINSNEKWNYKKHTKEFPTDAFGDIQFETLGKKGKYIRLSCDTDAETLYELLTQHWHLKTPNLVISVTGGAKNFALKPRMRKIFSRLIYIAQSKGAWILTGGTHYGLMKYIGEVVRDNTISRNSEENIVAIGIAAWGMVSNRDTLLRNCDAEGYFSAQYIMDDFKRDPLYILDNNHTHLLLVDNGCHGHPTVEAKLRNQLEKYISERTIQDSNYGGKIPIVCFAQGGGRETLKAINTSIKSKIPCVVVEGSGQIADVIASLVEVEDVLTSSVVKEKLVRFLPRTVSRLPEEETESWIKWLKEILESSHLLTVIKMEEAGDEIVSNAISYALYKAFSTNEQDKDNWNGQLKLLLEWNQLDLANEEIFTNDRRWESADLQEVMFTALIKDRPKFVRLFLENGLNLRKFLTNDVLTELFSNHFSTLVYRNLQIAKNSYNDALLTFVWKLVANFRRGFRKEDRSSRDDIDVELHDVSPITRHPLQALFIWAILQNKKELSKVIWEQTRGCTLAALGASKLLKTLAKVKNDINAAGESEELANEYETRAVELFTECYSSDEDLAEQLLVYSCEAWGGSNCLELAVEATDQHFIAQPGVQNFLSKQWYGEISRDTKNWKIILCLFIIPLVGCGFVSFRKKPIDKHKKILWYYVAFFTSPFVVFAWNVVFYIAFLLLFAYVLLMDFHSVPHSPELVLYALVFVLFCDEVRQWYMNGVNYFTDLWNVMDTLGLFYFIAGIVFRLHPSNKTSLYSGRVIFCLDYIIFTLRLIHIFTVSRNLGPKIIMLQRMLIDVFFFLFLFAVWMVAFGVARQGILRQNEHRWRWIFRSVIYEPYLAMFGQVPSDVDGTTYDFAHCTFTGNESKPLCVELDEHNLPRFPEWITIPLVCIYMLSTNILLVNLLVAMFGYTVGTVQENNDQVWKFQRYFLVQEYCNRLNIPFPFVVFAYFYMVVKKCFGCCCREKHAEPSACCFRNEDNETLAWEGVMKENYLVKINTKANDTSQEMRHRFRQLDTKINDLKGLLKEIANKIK

Consider `O=S(=O)(c1ccc(N2CCOCC2)nc1)N(Cc1ccc(F)c(C(F)(F)F)c1)c1nc2ccc(Cl)cn2c1Cl` [Compound 78], for which, under setting [1], the inhibition at 0.2 µM was found to be 26%.

Consider `O=S(=O)(c1ccc(-n2cccn2)cc1)N(Cc1ccc(F)c(C(F)(F)F)c1)c1nc2ccccn2c1Br` [Compound 79], for which the inhibition at 0.2 µM under setting [1] stood at 99%. Moreover, the IC50 (as a rule, the point on the concentration scale where inhibition reaches its midpoint) under setting [2] was 3.17 nM.

For `CCc1c(N(Cc2ccc(C(F)(F)F)c(F)c2)S(=O)(=O)c2ccccc2)nc2cccc(C)n12` [Compound 80], the inhibition at 0.2 µM under setting [1] amounted to 99%. Also, it took 12.1 nM to reach half-maximal inhibition under setting [2] (IC50).

On to `CCc1c(N(Cc2ccc(F)c(C(F)(F)F)c2)S(=O)(=O)c2ccccc2)nc2ccc(Cl)cn12` [Compound 82], for which the inhibition at 0.2 µM under setting [1] was determined as 100%. The same compound came in with an IC50 under setting [2] of 14.2 nM.

`O=S(=O)(c1ccc(N2CCOCC2)nc1)N(Cc1ccccc1)c1nc2ccccn2c1Br` [Compound 83]: under setting [1], the inhibition at 0.2 µM was found to be 87%. For the same compound, 74.6 nM corresponded to half-maximal inhibition under setting [2] (IC50).

On to `O=S(=O)(c1ccc(N2CCOCC2)nc1)N(Cc1ccc(OC(F)(F)F)cc1)c1nc2ccccn2c1Br` [Compound 84], for which the inhibition at 0.2 µM under setting [1] came to 100%. Inhibition under setting [2] was half-maximal at 11.5 nM (IC50).

Regarding `O=S(=O)(c1ccc(N2CCOCC2)nc1)N(Cc1ccc(C(F)(F)F)c(F)c1)c1nc2ccccn2c1Br` [Compound 85], the inhibition at 0.2 µM under setting [1] is 100%. Under setting [2], this compound had an IC50 of 31.2 nM.

Take `O=S(=O)(c1ccc(N2CCOCC2)nc1)N(Cc1ccc(F)c(C(F)(F)F)c1)c1nc2ccccn2c1Br` [Compound 86]: under setting [1], the inhibition at 0.2 µM was found to be 99%. The compound further had an IC50 under setting [2] of 10.7 nM.

Turning to `CCc1c(N(Cc2ccc(C(F)(F)F)c(F)c2)S(=O)(=O)c2ccc(N3CCOCC3)nc2)nc2ccc(Cl)cn12` [Compound 87], the inhibition at 0.2 µM under setting [1] was 86%. Besides, the IC50 under setting [2] came to 86.3 nM.

Take `CCc1c(N(Cc2ccc(C(F)(F)F)c(F)c2)S(=O)(=O)c2ccc(-n3cccn3)cc2)nc2ccc(Cl)cn12` [Compound 88]: the inhibition at 0.2 µM under setting [1] is 100%. Inhibition under setting [2] was half-maximal at 41.4 nM (IC50).

Regarding `CCc1c(N(Cc2ccc(OC(F)(F)F)cc2)S(=O)(=O)c2ccc(-n3cccn3)cc2)nc2ccc(Cl)cn12` [Compound 89], the inhibition at 0.2 µM under setting [1] is 99%. This compound had an IC50 under setting [2] of 25 nM.

`O=S(=O)(c1ccc(N2CCOCC2)nc1)N(Cc1ccc(F)c(C(F)(F)F)c1)c1nc2ccccn2c1Cl` [Compound 90, N-(3-Chloroimidazo[1,2-a]pyridin-2-yl)-N-(4-fluoro-3-trifluoromethylbenzyl)-6-morpholin-4-yl-pyridine-3-sulfonamide]: the inhibition at 0.2 µM under setting [1] worked out at 99%. The compound also came in with an IC50 under setting [2] of 26.9 nM.

As to `O=S(=O)(c1ccc(N2CCOCC2)nc1)N(Cc1ccc(C(F)(F)F)c(F)c1)c1nc2ccccn2c1Cl` [Compound 91], the inhibition at 0.2 µM under setting [1] was determined as 99%. The IC50 under setting [2] stood at 41.6 nM.

`O=S(=O)(c1ccc(N2CCOCC2)nc1)N(Cc1ccc(OC(F)(F)F)cc1)c1nc2ccccn2c1Cl` [Compound 92]: the inhibition at 0.2 µM under setting [1] was found to be 99%. Also, the IC50 under setting [2] is 25 nM.

For `O=S(=O)(c1ccc(N2CCOCC2)nc1)N(Cc1ccc(C(F)(F)F)cc1)c1nc2ccccn2c1Cl` [Compound 93], the inhibition at 0.2 µM under setting [1] came out at 98%. Besides, the midpoint of inhibition under setting [2], the IC50, lay at 26.9 nM.

Turning to `O=S(=O)(c1ccc(N2CCOCC2)nc1)N(Cc1cccc(C(F)(F)F)c1)c1nc2ccccn2c1Cl` [Compound 94], the inhibition at 0.2 µM under setting [1] came out at 97%. Also, the IC50 under setting [2] was found to be 48.4 nM.

Consider `O=S(=O)(c1ccc(-n2cccn2)cc1)N(Cc1ccc(F)c(C(F)(F)F)c1)c1nc2ccccn2c1Cl` [Compound 95], for which, under setting [1], the inhibition at 0.2 µM came out at 99%. This compound also registered an IC50 under setting [2] of 7 nM.

`O=S(=O)(c1ccc(-n2cccn2)cc1)N(Cc1ccc(C(F)(F)F)c(F)c1)c1nc2ccccn2c1Cl` [Compound 96]: the inhibition at 0.2 µM under setting [1] was determined as 100%. Moreover, under setting [2], 5.5 nM corresponded to half-maximal inhibition (IC50).

On to `O=S(=O)(c1ccc(-n2cccn2)cc1)N(Cc1ccc(OC(F)(F)F)cc1)c1nc2ccccn2c1Cl` [Compound 97], for which the inhibition at 0.2 µM under setting [1] stood at 99%. In addition, the midpoint of inhibition under setting [2], the IC50, lay at 8.48 nM.

Consider `O=S(=O)(c1ccc(-n2cccn2)cc1)N(Cc1ccc(C(F)(F)F)cc1)c1nc2ccccn2c1Cl` [Compound 98], for which, under setting [1], the inhibition at 0.2 µM came to 99%. The same compound had an IC50 under setting [2] of 4.04 nM.

Regarding `O=S(=O)(c1ccc(-n2cccn2)cc1)N(Cc1cccc(C(F)(F)F)c1)c1nc2ccccn2c1Cl` [Compound 99], the inhibition at 0.2 µM under setting [1] is 99%. In addition, under setting [2], the IC50 was 15.1 nM.

`Cc1c(N(Cc2ccc(C(F)(F)F)c(F)c2)S(=O)(=O)c2ccccc2)nc2ccc(C(F)(F)F)cn12` [Compound 100, N-(3-Fluoro-4-trifluoromethylbenzyl)-N-(3-methyl-6-trifluoromethylimidazo[1,2-a]pyridin-2-yl)benzenesulfonamide]: the inhibition at 0.2 µM under setting [1] was 31%.

Consider `Cc1c(N(Cc2ccc(C(F)(F)F)c(F)c2)S(=O)(=O)c2ccccc2)nc2cc(C(F)(F)F)ccn12` [Compound 101], for which, under setting [1], the inhibition at 0.2 µM turned out to be 22%.

With `Cc1c(N(Cc2ccc(F)c(C(F)(F)F)c2)S(=O)(=O)c2ccc(-n3cccn3)cc2)nc2ccc(Cl)cn12` [Compound 102, N-(6-chloro-3-methylimidazo[1,2-a]pyridin-2-yl)-N-(4-fluoro-3-trifluoromethylbenzyl)-4-(1H-pyrazol-1-yl)benzenesulfonamide], the inhibition at 0.2 µM under setting [1] is 100%. Further, the IC50 under setting [2] was determined as 21.8 nM.

`Cc1c(N(Cc2ccc(C(F)(F)F)c(F)c2)S(=O)(=O)c2ccc(-n3cccn3)cc2)nc2ccc(Cl)cn12` [Compound 103]: the inhibition at 0.2 µM under setting [1] was determined as 98%. The compound further came in with an IC50 under setting [2] of 24.5 nM.

For `Cc1c(N(Cc2ccc(OC(F)(F)F)cc2)S(=O)(=O)c2ccc(-n3cccn3)cc2)nc2ccc(Cl)cn12` [Compound 104], under setting [1], the inhibition at 0.2 µM came out at 93%. Under setting [2], this compound yielded an IC50 of 51.6 nM.

On to `Cc1c(N(Cc2ccc(C(F)(F)F)cc2)S(=O)(=O)c2ccc(-n3cccn3)cc2)nc2ccc(Cl)cn12` [Compound 105], for which the inhibition at 0.2 µM under setting [1] was 98%. This compound also came in with an IC50 under setting [2] of 30.3 nM.

As to `Cc1c(N(Cc2ccc(OC(F)(F)F)cc2)S(=O)(=O)CCN(CC(C)C)CC(C)C)nc2cc(C(F)(F)F)ccn12` [Compound 106, N-(4-Trifluoromethoxybenzyl)-N-(7-trifluoromethyl-3-methylimidazo[1,2-a]pyridin-2-yl)-2-(N,N-diisobutylamino)ethylsulfonamide], under setting [2], it took 93 nM to reach a half-maximal effect (EC50).

For `COC(=O)c1ccc(S(=O)(=O)N(Cc2ccc(OC(F)(F)F)cc2)c2nc3ccccn3c2C(C)C)cc1` [Compound 108], under setting [2], the “% Inh (%) @ 0.2 μM” value worked out at 101% and 10.4 nM corresponded to half-maximal inhibition (IC50).

Regarding `COC(=O)c1ccc(S(=O)(=O)N(Cc2ccc(OC(F)(F)F)cc2)c2nc3ccc(Cl)cn3c2C)cc1` [Compound 110, Methyl 4-(N-(6-Chloro-3-methylimidazo[1,2-a]pyridin-2-yl)-N-(4-trifluoromethoxybenzyl)sulfamoyl)benzoate], the inhibition at 0.2 µM under setting [1] amounted to 82%. This compound showed a half-inhibitory concentration (IC50) under setting [2] of 57.2 nM.

Turning to `COC(=O)c1ccc(S(=O)(=O)N(Cc2ccc(F)c(F)c2)c2nc3ccc(Cl)cn3c2C)cc1` [Compound 111], the inhibition at 0.2 µM under setting [1] is 73%. Under setting [2], this compound had a half-inhibitory concentration (IC50) of 81.5 nM.

For `COC(=O)c1ccc(S(=O)(=O)N(Cc2ccc(F)c(C(F)(F)F)c2)c2nc3ccc(Cl)cn3c2C)cc1` [Compound 112], the inhibition at 0.2 µM under setting [1] amounted to 83%. This compound also gave an IC50 under setting [2] of 82.1 nM.

Take `Cc1c(N(Cc2ccc(OC(F)(F)F)cc2)S(=O)(=O)c2ccc(C(=O)O)cc2)nc2ccc(Cl)cn12` [Compound 113, Sodium 4-(N-(6-Chloro-3-methylimidazo[1,2-a]pyridin-2-yl)-N-(4-trifluoromethoxybenzyl)sulfamoyl)benzoate]: the inhibition at 0.2 µM under setting [3] stood at 102%. This compound also displayed an IC50 under setting [2] of 14.6 nM.

As for `Cc1c(N(Cc2ccc(F)c(F)c2)S(=O)(=O)c2ccc(C(=O)O)cc2)nc2ccc(Cl)cn12` [Compound 114], the inhibition at 0.2 µM under setting [3] was 38%.

As for `Cc1c(N(Cc2ccc(F)c(C(F)(F)F)c2)S(=O)(=O)c2ccc(C(=O)O)cc2)nc2ccc(Cl)cn12` [Compound 115], the inhibition at 0.2 µM under setting [3] was 96%.

Regarding `COC(=O)c1ccc(S(=O)(=O)N(Cc2ccc(OC(F)(F)F)cc2)c2nc3ccccn3c2Cl)cc1` [Compound 116], the inhibition at 0.2 µM under setting [1] was 102%. Under setting [2], this compound yielded an IC50 of 5.29 nM.

For the compound `Cc1cccn2c(C)c(N(Cc3ccc(OC(F)(F)F)cc3)S(=O)(=O)c3ccc(C(=O)[O-])cc3)nc12.[Na+]` [Compound 117], under setting [2], the “% Inh (%) @ 0.2 μM” value was 101% and the concentration for half-maximal inhibition (IC50) worked out at 13.5 nM.

Turning to `COC(=O)c1ccc(S(=O)(=O)N(Cc2ccc(OC(F)(F)F)cc2)c2nc3ccc(F)cn3c2C)cc1` [Compound 118, Methyl 4-(N-(6-fluoro-3-methylimidazo[1,2-a]pyridin-2-yl)-N-(4-(trifluoromethoxy)benzyl)sulfamoyl)benzoate], under setting [1], the inhibition at 0.2 µM was determined as 100%. This compound showed an IC50 under setting [2] of 18 nM.

For the compound `COC(=O)c1ccc(S(=O)(=O)N(Cc2ccc(F)c(C(F)(F)F)c2)c2nc3ccc(F)cn3c2C)cc1` [Compound 119, Methyl 4-(N-(6-fluoro-3-methylimidazo[1,2-a]pyridin-2-yl)-N-(4-fluoro-3-(trifluoromethyl)benzyl)sulfamoyl)benzoate], under setting [1], the inhibition at 0.2 µM stood at 100%. Under setting [2], the IC50 worked out at 23.9 nM.
